Experimental data as given in patent US20230107642A1 (Erasca, Inc., priority 2020, published 2023).

Assay: Determination of total drug concentration in rat brain (BBB penetration)
Type: in vivo
Conditions: male SD rat, 2 mg/kg IV infusion for 4 hours, brain collected at end of 4 hours
Experimental: BB. Example 9: Determination of Total Drug Concentration in Rat Brain
In Vivo Experimental Procedures
Infuse male SD rat at 2 mg/kg dose for 4 hours through IV administration route. Collect brain tissues at the end of 4 hours.
Sample Preparation Procedures
Dilute brain tissue by adding homogenization solvent (1:4, w/v). Homogenize diluted brain tissue samples. Extract analyte by adding organic solvent (1:4, v/v) with spiked internal standard. Vortex and centrifuge the samples. Remove supernatant and dilute with HPLC compatible solvent (1:3, v/v).
Inject diluted extract into LC-MS/MS system using reversed phase high performance liquid chromatography coupled with electrospray ionization and selected reaction monitoring. Determine the total drug concentration in brain samples by quantitating against the standard curve prepared using the same matrix.
The following data provides blood brain barrier (BBB) penetration activity for a selection of inventive compounds where were directly compared to sotorasib and adagrasib (concentration in brain measured in ng/g).
Compounds that were measured as having a total concentration in the brain of at least 60 ng/g are indicated as “+”.

SMILES	BBB activity
C=CC(=O)N1[C@H](C)CN(c2nc(=O)n3c4c(c(-c5ccc(F)cc5F)c(C(F)(F)F)cc24)SC[C@@H]3CN2CCN(C3CC3)CC2)C[C@@H]1C [Example 13-26]	+ (Compounds that were measured as having a total concentration in the brain of at least 60 ng/g are indicated as “+”)
C=CC(=O)N1[C@H](C)CN(c2nc(=O)n3c4c(c(-c5cc(Cl)c(F)cc5F)c(C(F)(F)F)cc24)SC[C@@H](OC)C3)C[C@@H]1C [Example 13-24]	+ (Compounds that were measured as having a total concentration in the brain of at least 60 ng/g are indicated as “+”)
C=CC(=O)N1[C@H](C)CN(c2nc(=O)n3c4c(c(-c5ccc(F)cc5)c(C(F)(F)F)cc24)SC[C@@H](OCCF)C3)C[C@@H]1C [Example 13-64]	− (Compounds that did not meet this threshold are indicated as “−”)
C=CC(=O)N1[C@H](C)CN(c2nc(=O)n3c4c(c(-c5cc(Cl)c(F)cc5F)c(C(F)(F)F)cc24)SCC2(COC2)C3)C[C@@H]1C (atropisomer, axis not shown) [Example 13-44]	+ (Compounds that were measured as having a total concentration in the brain of at least 60 ng/g are indicated as “+”)
C=CC(=O)N1C[C@H](C)N(c2nc(=O)n3c4c(c(-c5ccc(F)cc5F)c(Cl)cc24)SCC3)C[C@H]1C [Example 13-18]	+ (Compounds that were measured as having a total concentration in the brain of at least 60 ng/g are indicated as “+”)
C=CC(=O)N1[C@H](C)CN(c2nc(=O)n3c4c(c(-c5ccc(F)cc5F)c(C(F)(F)F)cc24)SC[C@@H]3COCOC)C[C@@H]1C (atropisomer, axis not shown) [Example 13-60]	− (Compounds that did not meet this threshold are indicated as “−”)
C=CC(=O)N1[C@H](C)CN(c2nc(=O)n3c4c(c(-c5cc(Cl)c(F)cc5F)c(C(F)(F)F)cc24)SC[C@@H]3CC)C[C@@H]1C (atropisomer, axis not shown) [Example 13-8]	+ (Compounds that were measured as having a total concentration in the brain of at least 60 ng/g are indicated as “+”)
C=CC(=O)N1CCN(c2nc(=O)n3c4c(c(-c5c(F)cc(F)c6ccccc56)c(Cl)cc24)SCC3)[C@@H](C)C1 [Example 13-67]	− (Compounds that did not meet this threshold are indicated as “−”)
C=CC(=O)N1CCN(c2nc(=O)n3c4c(c(-c5ccc(F)cc5F)c(C(F)(F)F)cc24)SC[C@@H]3COC)[C@@H](C)C1 [Example 13-35]	+ (Compounds that were measured as having a total concentration in the brain of at least 60 ng/g are indicated as “+”)
C=CC(=O)N1C[C@H](C)N(c2nc(=O)n3c4c(c(-c5ccc(F)cc5F)c(Cl)cc24)OC[C@H]3CC2CCN(C)CC2)C[C@H]1C [Example 13-85]	− (Compounds that did not meet this threshold are indicated as “−”)
C=CC(=O)N1CCN(c2nc(=O)n3c4c(c(-c5ccc(F)cc5)c(C(F)(F)F)cc24)SC[C@@H]3CN2CCN(C3CC3)CC2)CC1 [Example 13-33]	+ (Compounds that were measured as having a total concentration in the brain of at least 60 ng/g are indicated as “+”)
C=CC(=O)N1[C@H](C)CN(c2nc(=O)n3c4c(c(-c5ccc(F)cc5F)c(C(F)(F)F)cc24)SC[C@@H](OCC)C3)C[C@@H]1C (atropisomer, axis not shown) [Example 13-52]	− (Compounds that did not meet this threshold are indicated as “−”)
C=CC(=O)N1CCN(c2nc(=O)n3c4c(c(-c5ccc(F)cc5F)c(C(F)(F)F)cc24)SCC3)[C@@H](C)C1 [Example 13-21]	+ (Compounds that were measured as having a total concentration in the brain of at least 60 ng/g are indicated as “+”)
C=CC(=O)N1C[C@H](C)N(c2nc(=O)n3c4c(c(-c5cc(Cl)c(F)cc5F)c(C(F)(F)F)cc24)CC[C@@H]3CN2CCC3(CC2)COC3)C[C@H]1C [Example 13-74]	− (Compounds that did not meet this threshold are indicated as “−”)
C=CC(=O)N1[C@H](C)CN(c2nc(=O)n3c4c(c(-c5ccc(F)cc5)c(C(F)(F)F)cc24)SC[C@@H](OCC2CC2)C3)C[C@@H]1C [Example 13-48]	− (Compounds that did not meet this threshold are indicated as “−”)
C=CC(=O)N1[C@H](C)CN(c2nc(=O)n3c4c(c(-c5cc(Cl)c(F)cc5F)c(C(F)(F)F)cc24)SC[C@@H]3COCOC)C[C@@H]1C [Example 13-50]	− (Compounds that did not meet this threshold are indicated as “−”)
C=CC(=O)N1CCN(c2nc(=O)n3c4c(c(-c5cc(Cl)c(F)cc5F)c(Cl)cc24)SC[C@@H]3CN2CCN(C3CC3)CC2)[C@@H](C)C1 [Example 13-27]	+ (Compounds that were measured as having a total concentration in the brain of at least 60 ng/g are indicated as “+”)

SMILES	BBB activity
C=CC(=O)N1[C@H](C)CN(c2nc(=O)n3c4c(c(-c5cc(Br)c(F)cc5F)c(C(F)(F)F)cc24)SC[C@@H]3CC)C[C@@H]1C (atropisomer, axis not shown) [Example 13-6]	+ (Compounds that were measured as having a total concentration in the brain of at least 60 ng/g are indicated as “+”)
C=CC(=O)N1[C@H](C)CN(c2nc(=O)n3c4c(c(-c5ccc(F)cc5)c(C(F)(F)F)cc24)SC[C@@H]3CN2CCN(C3CC3)CC2)C[C@@H]1C [Example 13-22]	+ (Compounds that were measured as having a total concentration in the brain of at least 60 ng/g are indicated as “+”)
C=CC(=O)N1CCN(c2nc(=O)n3c4c(c(-c5cc(Cl)c(F)cc5F)c(C(F)(F)F)cc24)SC[C@@H]3CN2CCN(C3CC3)CC2)CC1 [Example 13-30]	+ (Compounds that were measured as having a total concentration in the brain of at least 60 ng/g are indicated as “+”)
C=CC(=O)N1C[C@H](C)N(c2nc(=O)n3c4c(c(-c5ccc(F)cc5F)c(Cl)cc24)OCC3CN(C)C)C[C@H]1C (stereo partly shown) [Example 13-38]	+ (Compounds that were measured as having a total concentration in the brain of at least 60 ng/g are indicated as “+”)
C=CC(=O)N1CCN(c2nc(=O)n3c4c(c(-c5ccc(F)cc5F)c(C(F)(F)F)cc24)SC[C@@H]3COC)CC1 [Example 13-14]	+ (Compounds that were measured as having a total concentration in the brain of at least 60 ng/g are indicated as “+”)
C=CC(=O)N1C[C@H](C)N(c2nc(=O)n3c4c(c(-c5ccc(F)cc5F)c(C(F)(F)F)cc24)OC[C@@H]3COCCOC)C[C@H]1C [Example 13-91]	− (Compounds that did not meet this threshold are indicated as “−”)
C=CC(=O)N1[C@H](C)CN(c2nc(=O)n3c4c(c(-c5cc(Cl)c(F)cc5F)c(C(F)(F)F)cc24)SC[C@@H](OC)C3)C[C@@H]1C (atropisomer, axis not shown) [Example 13-39]	+ (Compounds that were measured as having a total concentration in the brain of at least 60 ng/g are indicated as “+”)
C=CC(=O)N1[C@H](C)CN(c2nc(=O)n3c4c(c(-c5ccc(F)cc5F)c(C(F)(F)F)cc24)SC[C@@H](OCC)C3)C[C@@H]1C (atropisomer, axis not shown) [Example 13-58]	− (Compounds that did not meet this threshold are indicated as “−”)
C=CC(=O)N1C[C@H](C)N(c2nc(=O)n3c4c(c(-c5ccc(F)cc5F)c(Cl)cc24)OC[C@H]3CCCN2CCC(F)(F)C2)C[C@H]1C [Example 13-80]	− (Compounds that did not meet this threshold are indicated as “−”)
C=CC(=O)N1CCN(c2nc(=O)n3c4c(c(-c5cc(Cl)c(F)cc5F)c(Cl)cc24)OC[C@@H]3CN2CCN(CC(F)F)CC2)[C@@H](C)C1 [Example 13-81]	− (Compounds that did not meet this threshold are indicated as “−”)
C=CC(=O)N1C[C@H](C)N(c2nc(=O)n3c4c(c(-c5ccc(F)cc5)c(C(F)(F)F)cc24)SCC2(COC2)C3)C[C@H]1C [Example 13-79]	− (Compounds that did not meet this threshold are indicated as “−”)
C=CC(=O)N1[C@H](C)CN(c2nc(=O)n3c4c(c(-c5ccc(F)c(Cl)c5)c(C(F)(F)F)cc24)SC[C@@H](OCC)C3)C[C@@H]1C [Example 13-82]	− (Compounds that did not meet this threshold are indicated as “−”)
C=CC(=O)N1[C@H](C)CN(c2nc(=O)n3c4c(c(-c5ccc(F)cc5)c(Cl)cc24)SC[C@@H](OC)C3)C[C@@H]1C [Example 13-69]	− (Compounds that did not meet this threshold are indicated as “−”)
C=CC(=O)N1CCN(c2nc(=O)n3c4c(c(-c5cc(Cl)c(F)cc5F)c(C(F)(F)F)cc24)SC[C@@H]3COC)CC1 [Example 13-5]	+ (Compounds that were measured as having a total concentration in the brain of at least 60 ng/g are indicated as “+”)
C=CC(=O)C1[C@H](C)CN(c2nc(=O)n3c4c(c(-c5ccc(F)cc5)c(C(F)(F)F)cc24)SC[C@@H](OC)C3)C[C@@H]1C (stereo partly shown) [Example 13-66]	− (Compounds that did not meet this threshold are indicated as “−”)
C=CC(=O)N1[C@H](C)CN(c2nc(=O)n3c4c(c(-c5cc(I)c(F)cc5F)c(C(F)(F)F)cc24)SC[C@@H]3COC)C[C@@H]1C (atropisomer, axis not shown) [Example 13-12]	+ (Compounds that were measured as having a total concentration in the brain of at least 60 ng/g are indicated as “+”)
C=CC(=O)N1[C@H](C)CN(c2nc(=O)n3c4c(c(-c5cc(Cl)c(F)cc5F)c(C(F)(F)F)cc24)SC[C@@H]3CN2CCN(C3CC3)CC2)C[C@@H]1C [Example 13-28]	+ (Compounds that were measured as having a total concentration in the brain of at least 60 ng/g are indicated as “+”)
